Experimental data: paper PMC9133232 (Cell chemical biology, 2022)
Read-outs that look alike come from different tables or passages of the source.

Assays:
[1] = molecular target: T1, HCMV C-A (Human cytomegalovirus, UniProt P16753, A143V/A209V/C138A/C202A/C84A/C87A); experiment: In-gel fluorescence direct detection assay in HFF-1 cell lysate; assay type: binding; details: read-out: EC50 reactivity with HCMV C-A (direct in-gel fluorescence); HFF-1 cell lysates
[2] = molecular target: T2, WT HCMV Pr (Human cytomegalovirus, UniProt P16753, A143V/A209V); experiment: biochemical; assay type: biochemical
T2 sequence (P16753 1-256 A143V/A209V): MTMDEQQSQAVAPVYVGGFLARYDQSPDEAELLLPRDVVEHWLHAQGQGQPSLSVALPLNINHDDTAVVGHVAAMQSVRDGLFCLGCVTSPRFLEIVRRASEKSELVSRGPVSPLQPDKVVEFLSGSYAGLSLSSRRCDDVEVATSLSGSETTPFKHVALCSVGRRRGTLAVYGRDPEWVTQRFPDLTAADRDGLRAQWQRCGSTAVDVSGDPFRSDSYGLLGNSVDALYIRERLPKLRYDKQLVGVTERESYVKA

[3] = molecular target: Human Cytomegalovirus Protease C84A, C87A, C138A, C202A, S225M (human cytomegalovirus) (UniProt P16753); experiment: SEC
[4] = molecular target: HCMV C-A (HCMV Pr C84A, C87A, C138A, C202A) (Human cytomegalovirus, UniProt P16753, A143V/A209V/C138A/C202A/C84A/C87A); experiment: biochemical
[5] = molecular target: HSV1 Pr (Human herpesvirus 1, UniProt P10210); experiment: Fluorogenic substrate inhibition assay, HSV1 Pr; assay type: biochemical
[6] = system: EBV Pr; experiment: Fluorogenic substrate inhibition assay, EBV Pr; assay type: biochemical, Epstein-Barr virus; details: read-out: IC50 EBV Pr; one hour incubation
[7] = molecular target: T3, HCMV C-A (C161) (Human cytomegalovirus, UniProt P16753, A143V/A209V/C138A/C202A/C84A/C87A); assay type: binding; details: intact protein LC/MS
[8] = molecular target: T1, HCMV C-A; details: for t1/2 HCMV C-A: 0.693 divided by kinact
[9] = molecular target: T1, HCMV C-A; experiment: biochemical
[10] = system: HFF-1 cells; experiment: Cell death three days post-reinfection; assay type: cell-based, human
[11] = system: HFF-1 cells; experiment: Cytotoxicity determined in parallel to antiviral EC50; details: over the course of the antiviral assay
[12] = molecular target: T4, HCMV C-A S225M (Human cytomegalovirus, UniProt P16753, A143V/A209V/C138A/C202A/C84A/C87A/S225M); experiment: Time-course inhibitor labeling by intact protein LC/MS, HCMV C-A S225M dimer; assay type: binding; details: time course in the absence of DTT
[13] = molecular target: T1, HCMV C-A; experiment: In-gel fluorescence competition assay in HFF-1 cell lysate; assay type: binding
[14] = molecular target: T1, HCMV C-A; experiment: Time-course inhibitor labeling by intact protein LC/MS, HCMV C-A; assay type: binding; details: time course in the absence of DTT
[15] = molecular target: T3, HCMV C-A (C161); assay type: binding; details: 5 μM protein in Tris, 50 μM compound, overnight
[16] = molecular target: T4, HCMV C-A S225M; experiment: KI and kinact determination, HCMV C-A S225M; assay type: biochemical

Compound	IC50 [2]	IC50 [4]	IC50 [5]	IC50 [6]	kinact HCMV C-A [8]	kinact/KI HCMV C-A [8]	t1/2 HCMV C-A [8]	Ki [9]	further results
C#CCNC(=O)OCc1c(-c2ccccc2)nnn1CC(=O)CCl [Compound 48]	–	–	–	–	–	–	–	–	EC50 [1]: 4 µM; IC50 ([2]; read-out: IC50 WT HCMV Pr, one hour incubation): 8 µM
Human Cytomegalovirus Protease C84A, C87A, C138A, C202A, S225M (from UniProt P16753 1-256) (enzyme)	–	–	–	–	–	–	–	–	stoichiometry N [3]: 2
O=C(CCl)Cn1cc(-c2ccc([N+](=O)[O-])cc2)nn1 [Compound 34, 1-Chloro-3-(4-(4-nitrophenyl)-1H-1,2,3-triazol-1-yl)propan-2-one]	6 µM	22 µM	51 µM	–	–	–	–	–	–
CN(C)C(=O)OCc1c(-c2ccccc2)nnn1CC(=O)CCl [Compound 42, (1-(3-Chloro-2-oxopropyl)-4-phenyl-1H-1,2,3-triazol-5-yl)methyl dimethylcarbamate]	33 µM	101 µM	> 1000 µM	–	–	–	–	–	–
CNC(=O)OCc1c(-c2ccccc2)nnn1CC(=O)CCl [Compound 41, (1-(3-Chloro-2-oxopropyl)-4-phenyl-1H-1,2,3-triazol-5-yl)methyl methylcarbamate]	68 µM	60 µM	> 1000 µM	7 µM	–	–	–	–	–
O=C(CCl)Cn1cc(-c2ccccc2)nn1 [Compound 31, 1-Chloro-3-(4-phenyl-1H-1,2,3-triazol-1-yl)propan-2-one]	33 µM	25 µM	–	–	0.026 min⁻¹	11.3 M⁻¹ s⁻¹	26 min	38 µM	reactivity with C161 (labeling of HCMV C-A) [7]: showed reactivity with C161
CC(=O)Nc1cccc(-c2cn(CC(=O)CCl)nn2)c1 [Compound 39, N-(3-(1-(3-Chloro-2-oxopropyl)-1H-1,2,3-triazol-4-yl)phenyl)acetamide]	18 µM	46 µM	188 µM	52 µM	–	–	–	–	–
O=C(CCl)Cn1nnc(-c2ccccc2)c1COC(=O)N1CCOCC1 [Compound 45, (1-(3-Chloro-2-oxopropyl)-4-phenyl-1H-1,2,3-triazol-5-yl)methyl morpholine-4-carboxylate]	53 µM	66 µM	670 µM	4 µM	0.020 min⁻¹	12.8 M⁻¹ s⁻¹	35 min	26 µM	–
O=C(CCl)Cn1nnc(-c2ccccc2)c1COC(=O)NCCCN1CCCC1=O [Compound 47, (1-(3-Chloro-2-oxopropyl)-4-phenyl-1H-1,2,3-triazol-5-yl)methyl (3-(2-oxopyrrolidin-1-yl)propyl)carbamate]	–	135 µM	–	–	0.016 min⁻¹	12.7 M⁻¹ s⁻¹	44 min	21 µM	–
N#Cc1ccc(-c2cn(CC(=O)CCl)nn2)cc1 [Compound 35, 4-(1-(3-Chloro-2-oxopropyl)-1H-1,2,3-triazol-4-yl)benzonitrile]	11 µM	33 µM	207 µM	21 µM	–	–	–	–	–
O=C(CCl)Cn1cc(-c2ccc(Br)cc2)nn1 [Compound 36, 1-(4-(4-Bromophenyl)-1H-1,2,3-triazol-1-yl)-3-chloropropan-2-one]	5 µM	25 µM	35 µM	17 µM	–	–	–	–	–
O=C(CCl)Cn1nnc(-c2ccccc2)c1COC(=O)NCCN1CCOCC1 [Compound 46, (1-(3-Chloro-2-oxopropyl)-4-phenyl-1H-1,2,3-triazol-5-yl)methyl (2-morpholinoethyl)carbamate]	–	182 µM	–	–	–	–	–	–	–
O=C(CCl)Cn1cc(-c2cccc(Cl)c2)nn1 [Compound 38, 1-Chloro-3-(4-(3-chlorophenyl)-1H-1,2,3-triazol-1-yl)propan-2-one]	6 µM	30 µM	145 µM	8 µM	–	–	–	–	–
O=C(CCl)Cn1cc(-c2ccc(Cl)cc2)nn1 [Compound 37, 1-Chloro-3-(4-(4-chlorophenyl)-1H-1,2,3-triazol-1-yl)propan-2-one]	5 µM	32 µM	98 µM	11 µM	–	–	–	–	–
O=C(CCl)Cn1nnc(-c2ccccc2)c1COC(=O)NCc1ccccc1 [Compound 43, (1-(3-Chloro-2-oxopropyl)-4-phenyl-1H-1,2,3-triazol-5-yl)methyl benzylcarbamate]	4 µM	33 µM	> 1000 µM	2 µM	0.024 min⁻¹	45 M⁻¹ s⁻¹	29 min	9 µM	cell death three days post-reinfection [10]: minimal; CC50 in parallel to antiviral EC50 [11]: 11 μΜ; final protein labeling HCMV C-A S225M [12]: 100%; EC50 [13]: 3 µM; final protein labeling HCMV C-A [14]: 100%; labeling of HCMV C-A at C161 [15]: 100%; kinact HCMV C-A S225M [16]: 0.011 min⁻¹
COCCNC(=O)OCc1c(-c2ccccc2)nnn1CC(=O)CCl [Compound 44, (1-(3-Chloro-2-oxopropyl)-4-phenyl-1H-1,2,3-triazol-5-yl)methyl (2-methoxyethyl)carbamate]	13 µM	54 µM	840 µM	12 µM	0.022 min⁻¹	12.7 M⁻¹ s⁻¹	31 min	29 µM	–
